Test results taken from patent EP0016371A1, “Urea derivatives, process and intermediates for their preparation, medicaments containing such a urea derivative and its therapeutical use” (F. HOFFMANN-LA ROCHE & CO. Aktiengesellschaft, priority 1979, dated 1980).

What was measured:
Type in all cases: in vivo
[1] = test system: Füllinsdorfer Ratten; assay: Conflict test in rats (single-lever Skinner box, food pellet reward combined with foot shock); conditions: Rattus norvegicus; female rats, by gavage half an hour before the one-hour main test, Wilcoxon test vs. saline pretreatment; read-out: erste signifikant anxiolytisch wirksame Dosis
Protocol: Die Testapparatur ist eine Eintasten-Skinnerbox mit Futterpillengeber.
Während 3 einstündigen Vorversuchen (an drei verschiedenen Tagen) werden hungrige weibliche Füllinsdorfer Ratten (SPF, 190-230 g) darauf trainiert, die Tast des Futterpillengebers zu drücken, um Futterpillen von je 45 mg zu erhalten (jeder Tastendruck wird belohnt); im dritten Vorversuch erreichen die Ratten eine Rate von 150-200 Tastenbetätigungen pro Stunde.
In einem vierten Vorversuch wird jede durch Tastendruck hervorgerufene Pillenbelohnung mit einem kurzen elektrischen Fuss-Schock (1,0 mA) kombiniert. Die Ratten, welche mit dieser Konflikt-Situation konfrontiert sind, betätigen anfangs noch etwa 5-10mal die Drucktaste und hören dann aus Angst gänzlich auf.
In einem fünften Vorversuch können die Ratten die Taste des Futterpillengebers wieder ohne zusätzlichen Fuss-Schock drücken, wobei wiederum eine Rate von 150-200 Tastenbetätigungen pro Stunde erreicht wird.
In einem sechsten Vorversuch wird eine Selektion der Testtiere durchgeführt. Den Testtieren werden eine halbe Stunde vor Beginn dieses Vorversuches peroral 10 mg/kg Chlordiazepoxid verabreicht; jede Pillenbelohnung wird wiederum mit einem Fuss-Schock kombiniert (Konflikt). Nur Ratten, die in diesem Vorversuch eine Rate von 20-50 Tastenbetätigungen erreichen (vgl. die 5-10 Tastenbetätigungen im vierten Vorversuch) werden als geeignete Testtiere für die Prüfung von potentiellen Anxiolytika behalten. Die Eliminationsrate in diesem Vorversuch beträgt 5%.
Im Hauptversuch werden zur Prüfung der potentiellen Anxiolytika pro Substanz und pro Dosis in der Regel 8 Ratten eingesetzt. Eine unbehandelte Kontrollgruppe ist nicht erforderlich, da jedes Tier als seine eigene Kontrolle dient. Die Testsubstanzen, welche in einem Gemisch von destilliertem Wasser (10 ml) und Tween 80 (2 Tropfen) gelöst oder suspendiert sind, werden den Tieren mit Hilfe einer Schlundsonde eine halbe Stunde vor dem einstündigen Hauptversuch verabreicht. […]

[2] = test system: Maus; assay: Rotating rod test; conditions: Versuch am Rotierstab, bis zu einer Dosis von 300 mg/kg
Text: (§1) Bei den oben genannten Versuchen handelt es sich um allgemein bekannte Standardmethoden zur Bestimmung von sedierender und muskelrelaxierender Wirkung.

[3] = test system: Maus; assay: Antipentetrazole test; conditions: Antipentetrazoltest, bis zu einer Dosis von 300 mg/kg
Text: as §1

[4] = test system: Maus; assay: 3-Mercaptopropionic acid test; conditions: Mus musculus, 3-Mercaptopropionsäure-Test
Text: as §1

[5] = test system: Maus; assay: Maximal electroshock test; conditions: Mus musculus, maximaler Elektroschock
[6] = test system: Maus; assay: Chimney test; conditions: Kamintest, bis zu einer Dosis von 300 mg/kg
Text: as §1

Row | Structure (SMILES) | minimal effective dose [1] [mg/kg] | Aktivität [2] | Aktivität [3] | ED50 [4] [mg/kg] | ED50 [5] [mg/kg] | Aktivität [6]
1 | CN1CC(=O)N=C1NC(=O)Nc1cccs1 [1-(1-Methyl-4-oxo-2-imidazolin-2-yl)-3-(2-thienyl)harnstoff] | 30 | – | – | – | – | –
2 | CN1CC(=O)N=C1NC(=O)Nc1ccsc1 [1-(1-Methyl-4-oxo-2-imidazolin-2-yl)-3-(3-thienyl)harnstoff] | 10 | – | – | – | – | –
3 | CN1CC(=O)N=C1NC(=O)Nc1csc(Cl)c1 [1-(5-Chlor-3-thienyl)-3-(1-methyl-4-oxo-2-imidazolin-2-yl)harnstoff] | 3 | keinerlei Aktivität | keinerlei Aktivität | 76 | > 100 | keinerlei Aktivität
